# Test system: galactose oxidase
# Test: Substrate specificity of galactose oxidase (quinoneimine colorimetric assay)
# Conditions: not given
row,SMILES,action of the enzyme on the substrate
1,O=C(CO)CO [dihydroxyacetone],acts on
2,OC[C@H]1O[C@H](OC[C@H]2OC(O)[C@H](O)[C@@H](O)[C@@H]2O)[C@H](O)[C@@H](O)[C@H]1O (stereo partly drawn) [melibiose],acts on
3,OC[C@H]1O[C@H](OC[C@H]2O[C@H](O[C@]3(CO)O[C@H](CO)[C@@H](O)[C@@H]3O)[C@H](O)[C@@H](O)[C@@H]2O)[C@H](O)[C@@H](O)[C@H]1O [raffinose],acts on

# Test system: galactose oxidase
# Test: not given
# Format: biochemical, Gibberella fujikuroi Y-530929
# Conditions: 25° C., pH 7.0
row,SMILES,Inhibition rate
1,O=[N+]([O-])[O-].[Ag+] [AgNO3],100%
2,NO [NH2 OH],100%
3,[N-]=[N+]=[N-].[Na+] [NaN3],94%
4,"O=C(O)c1cc[c]([Hg][Cl])cc1 [PCMB, parachloromercurybenzoate]",57%

# Same assay, conditions: inhibitor 10^-3 M; 25° C., pH 7.0
row,SMILES,Inhibition rate
1,"O=C(O)CN(CCN(CC(=O)O)CC(=O)O)CC(=O)O [EDTA, ethylenediaminetetraacetic acid]",52%
2,c1cnc2c(c1)ccc1cccnc12 [o-phenanthroline],68%

# Source: US4335213A (priority 1979, dated 1982)
